The values that follow come from patent publication US20160145247A1, “Aminomethyl-Biaryl Derivatives Complement Factor D inhibitors and uses thereof” (NOVARTIS AG, priority 2013, published 2016).

Each structure is given as a SMILES string.

In this assay the target is T1, factor D (Homo sapiens, UniProt P00746).
T1 construct: made in house; host or cells: E. coli
T1 sequence (P00746 26-253): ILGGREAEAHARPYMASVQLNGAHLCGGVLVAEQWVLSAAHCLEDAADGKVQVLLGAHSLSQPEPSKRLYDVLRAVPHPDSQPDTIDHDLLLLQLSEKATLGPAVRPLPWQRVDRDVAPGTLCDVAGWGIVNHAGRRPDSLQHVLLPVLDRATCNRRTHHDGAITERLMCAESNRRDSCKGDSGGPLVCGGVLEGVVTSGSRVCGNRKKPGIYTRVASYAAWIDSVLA
The experiment in a line: factor D inhibition assay of Biological Example 2. The class given is biochemical.
In the case of `CC(C)OCc1cc(COc2ccccc2CC(=O)O)cc(-c2cccc([C@@H](C)N)c2F)c1` [Example 120-O], 24 nM corresponded to half-maximal inhibition (IC50). For `NC(CF)c1cccc(-c2cc(COc3ccccc3CC(=O)O)cc(OC[C@H]3CCCO3)c2)c1F` (single isomer, unassigned; (-)) [Example 212-A], the IC50 (as a rule, the concentration that inhibits the measured activity by half) was found to be 6 nM. As for `NCc1cccc(-c2cccc(COc3ccccc3CC(=O)O)c2)c1O` [Example 144-C, 2-(2-((3′-(Aminomethyl)-2′-hydroxy-[1,1′-biphenyl]-3-yl)methoxy)phenyl)acetic acid], the half-maximal inhibitory concentration (IC50) stood at 56 nM. With `C[C@@H](N)c1cc(-c2cccc(COc3ccccc3CC(=O)O)c2)ccn1` [Example 142-D], the half-inhibitory concentration (IC50) is 346 nM. Take `N[C@H](CO)c1cccc(-c2cc(COc3ccccc3CC(=O)O)cc(NCC3CCCO3)c2F)c1` (mixture of isomers) [Example 157, 2-(2-((3′-((S)-1-Amino-2-hydroxyethyl)-6-fluoro-5-(((tetrahydrofuran-2-yl)methyl)amino)-[1,1′-biphenyl]-3-yl)methoxy)phenyl)acetic acid]: it took 5 nM to reach half-maximal inhibition (IC50). For the compound `N[C@H](CC1CC1)c1cccc(-c2cccc(COc3ccccc3CC(=O)O)c2)c1` [Example 196-I], the IC50 was determined as 239 nM.

With `C[C@@H](N)c1cccc(-c2cc(CCC3CCCC3)cc(COc3ccccc3CC(=O)O)c2)c1F` [Example 237, (R)-2-(2-((3′-(1-aminoethyl)-5-(2-cyclopentylethyl)-2′-fluoro-[1,1′-biphenyl]-3-yl)methoxy)phenyl)acetic acid], the 50% inhibitory concentration (IC50) came out at 11 nM.

Turning to `NC(=O)C(N)c1cccc(-c2cccc(COc3ccccc3CC(=O)O)c2)c1` (racemic) [Example 189, (±)-2-(2-((3′-(1,2-Diamino-2-oxoethyl)-[1,1′-biphenyl]-3-yl)methoxy)phenyl)acetic acid], the half-maximal inhibitory concentration (IC50) amounted to 1110 nM. Against the preceding compound, the IC50 is about 100-fold higher. The compound `Cc1cc(Nc2cc(C(=O)Nc3ccccc3CC(=O)O)cc(-c3cc(F)cc(CN)c3)c2)n(C)n1` [Example 79-I] yielded an IC50 of 19 nM. Consider `COC(C)c1cc(COc2ccccc2CC(=O)O)cc(-c2cccc([C@@H](C)N)c2)c1` (mixture of isomers) [Example 119-B, 2-(2-((3′-((R)-1-Aminoethyl)-5-(1-methoxyethyl)-[1,1′-biphenyl]-3-yl)methoxy)phenyl)acetic acid (mixture of diastereomers)], for which the concentration for half-maximal inhibition (IC50) amounted to 13 nM.

As for `NCc1cccc(-c2cccc(C(=O)Nc3ccccc3CC(=O)O)c2)c1F` [Example 37, 2-(2-(3′-(Aminomethyl)-2′-fluoro-[1,1′-biphenyl]-3-ylcarboxamido)phenyl)acetic acid], the IC50 was 41 nM.

For the compound `NCc1cccc(-c2cc(COc3ccccc3CC(=O)O)cc3c2OCO3)c1` [Example 126-B, 2-(2-((7-(3-(Aminomethyl)phenyl)benzo[d][1,3]dioxol-5-yl)methoxy)phenyl)acetic acid], the IC50 stood at 3 nM. With `CCN(CC1CC1)c1cc(COc2ccccc2CC(=O)O)cc(-c2cccc([C@@H](C)N)c2F)c1` [Example 242-C, (R)-2-(2-((3′-(1-aminoethyl)-5-((cyclopropylmethyl)(ethyl)amino)-2′-fluoro-[1,1′-biphenyl]-3-yl)methoxy)phenyl)acetic acid], the half-inhibitory concentration (IC50) was determined as 90 nM. For the compound `CCOc1cc(COc2ccccc2CC(=O)O)cc(-c2cccc([C@H](N)CO)c2)c1` [Example 115-B], inhibition was half-maximal at 8 nM (IC50). The compound `CCC(=O)Nc1cc(C(=O)Nc2ccccc2CC(=O)O)cc(-c2cc(F)cc(CN)c2)c1` [Example 96-D, 2-(2-(3′-(Aminomethyl)-5′-fluoro-5-propionamido-[1,1′-biphenyl]-3-ylcarboxamido)phenyl)acetic acid] registered a concentration for half-maximal inhibition (IC50) of 21 nM.

In turn, `NCc1cc(F)cc(-c2cc(NCc3ccncc3)cc(C(=O)Nc3ccccc3CC(=O)O)c2)c1` [Example 14-B] had a concentration for half-maximal inhibition (IC50) of 11 nM. With `CCOc1cc(COc2ccccc2CC(=O)O)cc(-c2cccc([C@@H](C)N)c2)c1` [Example 257, (R)-2-(2-((3′-(1-aminoethyl)-5-ethoxy-[1,1′-biphenyl]-3-yl)methoxy)phenyl)acetic acid], the IC50 turned out to be 9 nM. The compound `C[C@@H](N)c1cccc(-c2ccc(Cl)c(COc3ccccc3CC(=O)O)c2)c1F` [Example 275, (R)-2-(2-((3′-(1-aminoethyl)-4-chloro-2′-fluoro-[1,1′-biphenyl]-3-yl)methoxy)phenyl)acetic acid] displayed an IC50 of 13 nM.

`N#Cc1ccc(OCc2cccc(-c3cccc(CN)c3)c2)c(CC(=O)O)c1` [Example 294-F] displayed a 50% inhibitory concentration (IC50) of 70 nM. This IC50 is about 5.4-fold higher than that of the compound before. In the case of `C[C@@H](N)c1cccc(-c2cc(COc3ccccc3CC(=O)O)cc(N3CCCCC3)c2)c1F` [Example 241-C, (R)-2-(2-((3′-(1-Aminoethyl)-2′-fluoro-5-(piperidin-1-yl)-[1,1′-biphenyl]-3-yl)methoxy)phenyl)acetic acid] it was 40 nM; in that of `NCc1cc(F)cc(-c2cccc(C(=O)Nc3ccc(Cl)cc3CC(=O)O)n2)c1` [Example 21-P], 118 nM. In turn, `CC(C#N)Oc1cc(C(=O)Nc2ccccc2CC(=O)O)cc(-c2cccc(CN)c2)c1` (racemic) [Example 64, (±)-2-(2-(3′-(Aminomethyl)-5-(1-cyanoethoxy)-[1,1′-biphenyl]-3-ylcarboxamido)phenyl)acetic acid] registered an IC50 of 63 nM. In the case of `NCc1cc(F)cc(-c2cc(Br)cc(C(=O)Nc3ccccc3CC(=O)O)c2)c1` [Example 12, 2-(2-(3′-(Aminomethyl)-5-bromo-5′-fluoro-[1,1′-biphenyl]-3-ylcarboxamido)phenyl)acetic acid] it was 80 nM; in that of `C[C@@H](N)c1cccc(-c2cc(CNCC(F)(F)F)cc(COc3ccccc3CC(=O)O)c2)c1F` [Example 285-B], 58 nM; in that of `COC(C)c1cc(COc2ccccc2CC(=O)O)cc(-c2cccc([C@@H](C)N)c2F)c1` (stereo partly shown) [Example 120-D], 93 nM. As for `C[C@@H](N)c1cccc(-c2cc(COc3ccccc3CC(=O)O)cc(OCC3(C)CC3)c2)c1` [Example 261, (R)-2-(2-((3′-(1-aminoethyl)-5-((1-methylcyclopropyl)methoxy)-[1,1′-biphenyl]-3-yl)methoxy)phenyl)acetic acid], the IC50 worked out at 24 nM. In turn, `CCOC(=O)Cc1ccccc1NC(=O)c1cc(NC[C@H]2CCCO2)cc(-c2cc(F)cc(CN)c2)c1` [Example 85, (R)-Ethyl 2-(2-(3′-(aminomethyl)-5′-fluoro-5-(((tetrahydrofuran-2-yl)methyl)amino)-[1,1′-biphenyl]-3-ylcarboxamido)phenyl)acetate] displayed an IC50 of 709 nM. Compared with the last compound, the IC50 is about 30-fold higher. Compound `COCc1cc(COc2ccccc2CC(=O)O)cc(-c2cccc([C@@H](C)N)c2F)c1` [Example 120-A] had a half-maximal inhibitory concentration (IC50) of 15 nM. `NC(CF)c1cccc(-c2cc(COc3ccccc3CC(=O)O)cc(OCC3CC3)c2)c1F` (racemic) [Example 206, (±)-2-(2-((3′-(1-Amino-2-fluoroethyl)-5-(cyclopropylmethoxy)-2′-fluoro-[1,1′-biphenyl]-3-yl)methoxy)phenyl)acetic acid] displayed a 50% inhibitory concentration (IC50) of 5 nM.

Compound `C[C@@H](N)c1cccc(-c2cc(COc3ccccc3CC(=O)O)cc(N3CCC3)c2)c1F` [Example 247, (R)-2-(2-((3′-(1-aminoethyl)-5-(azetidin-1-yl)-2′-fluoro-[1,1′-biphenyl]-3-yl)methoxy)phenyl)acetic acid] gave an IC50 of 10 nM. `Cc1cc(-c2cccc([C@@H](C)N)c2F)cc(COc2ccccc2CC(=O)O)c1C` [Example 283, (R)-2-(2-((3′-(1-aminoethyl)-2′-fluoro-4,5-dimethyl-[1,1′-biphenyl]-3-yl)methoxy)phenyl)acetic acid] yielded a 50% inhibitory concentration (IC50) of 13 nM. With `NCc1cccc(-c2cc(COc3ccccc3CC(=O)O)cc(COc3ccccc3CC(=O)O)c2)c1` [Example 116-C], the IC50 is 4 nM. Consider `Cn1ccc(CNc2cc(C(=O)Nc3ccccc3CC(=O)O)cc(-c3cc(F)cc(CN)c3)c2)n1` [Example 14-C], for which it took 5 nM to reach half-maximal inhibition (IC50).

In turn, `N[C@H](CO)c1cccc(-c2cc(COc3ccccc3CC(=O)O)cc(OCC(F)(F)F)c2)c1` [Example 115-C] came in with an IC50 of 5 nM. For the compound `NC(CF)c1cccc(-c2cccc(COc3ccccc3CC(=O)O)c2)c1F` (stereo not shown) [Example 196-F], inhibition was half-maximal at 6 nM (IC50). For `CC(O)c1cc(COc2ccccc2CC(=O)O)cc(-c2cccc([C@@H](C)N)c2F)c1` (stereo partly shown) [Example 120-F], half-maximal inhibition (IC50) was put at 8 nM. This IC50 and that of the compound before are within 1.5-fold of each other. In the case of `NCc1cccc(-c2cc(-c3ccccc3)cc(C(=O)Nc3ccccc3CC(=O)O)n2)c1` [Example 52, 2-(2-(6-(3-(Aminomethyl)phenyl)-4-phenylpicolinamido)phenyl)acetic acid] it was 7 nM. The compound `NCc1cc(F)cc(-c2nc(C(=O)Nc3ccccc3CC(=O)O)c(N3CCOCC3)s2)c1` [Example 32, 2-(2-(2-(3-(aminomethyl)-5-fluorophenyl)-5-morpholinothiazole-4-carboxamido)phenyl)acetic acid] showed a half-inhibitory concentration (IC50) of 49 nM. The value for `NCc1cccc(-c2cc(OC[C@H]3CCCO3)cc(C(=O)Nc3ccccc3CC(=O)O)c2)c1` [Example 74-D, (R)-2-(2-(3′-(Aminomethyl)-5-((tetrahydrofuran-2-yl)methoxy)-[1,1′-biphenyl]-3-ylcarboxamido)phenyl)acetic acid] was 9 nM; that for `NCc1cccc(-c2cccc(CCc3ccccc3CC(=O)O)c2)c1` [Example 16-D, 2-(2-(2-(3′-(Aminomethyl)-[1,1′-biphenyl]-3-yl)ethyl)phenyl)acetic acid] was 470 nM. On to `NCc1cc(F)cc(-c2cccc(C(=O)Nc3cccc(Br)c3CC(=O)O)c2)c1` [Example 21-G], for which the IC50 stood at 7680 nM. As to `NCc1cccc(-c2cc(C(=O)Nc3ccccc3CC(=O)O)ccn2)c1` [Example 38, 2-(2-(2-(3-(Aminomethyl)phenyl)isonicotinamido)phenyl)acetic acid], it took 14300 nM to reach half-maximal inhibition (IC50).

Regarding `NCc1cccc(-c2cc(CCC3CC3)cc(COc3ccccc3CC(=O)O)c2)c1` [Example 107-C, 2-(2-((3′-(Aminomethyl)-5-(2-cyclopropylethyl)-[1,1′-biphenyl]-3-yl)methoxy)phenyl)acetic acid], the 50% inhibitory concentration (IC50) was 2 nM.
